Several values for one entry are separate records, joined by “and”; a condition that tells them apart may be missing. Identical values can stand only once. Toxic doses and inconclusive results are not listed. Cut-off read from the data, not from the text of the source: active = T/C of 150% or more; inactive = T/C below 125%.
System: L1210 leukemia ip in BDF1 mice, survival T/C
Test: NCI In Vivo Anticancer Drug Screen. Data for tumor model L1210 Leukemia (intraperitoneal) in B6D2F1 (BDF1) mice
Settings: endpoint: mean survival time, higher = longer survival
How it was run: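 Transplantable tumor model; survival measured in treated vs vehicle control mice. Value = treated/control.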

[1] = dose: 100.0 mg/kg/injection, schedule: Q04DX003 (ip), vehicle: saline with Tween-80
[2] = dose: 200.0 mg/kg/injection, schedule: Q04DX003 (ip), vehicle: saline with Tween-80
[3] = dose: 100.0 mg/kg/injection, schedule: Q01DX009 (ip), vehicle: saline with Tween-80
[4] = dose: 200.0 mg/kg/injection, schedule: Q01DX009 (ip), vehicle: saline with Tween-80
[5] = dose: 400.0 mg/kg/injection, schedule: Q01DX009 (ip), vehicle: saline with Tween-80
[6] = dose: 100.0 mg/kg/injection, schedule: Q01DX009 (ip), vehicle: Klucel (hydroxypropylcellulose) (HPC)
[7] = dose: 200.0 mg/kg/injection, schedule: Q01DX009 (ip), vehicle: Klucel (hydroxypropylcellulose) (HPC)
[8] = dose: 400.0 mg/kg/injection, schedule: Q01DX009 (ip), vehicle: Klucel (hydroxypropylcellulose) (HPC)
[9] = dose: 50.0 mg/kg/injection, schedule: Q01DX009 (ip), vehicle: saline
[10] = dose: 100.0 mg/kg/injection, schedule: Q01DX009 (ip), vehicle: saline
[11] = dose: 100.0 mg/kg/injection, schedule: Q01DX001 (ip), vehicle: Klucel (hydroxypropylcellulose) (HPC)
[12] = dose: 200.0 mg/kg/injection, schedule: Q01DX001 (ip), vehicle: Klucel (hydroxypropylcellulose) (HPC)
[13] = dose: 400.0 mg/kg/injection, schedule: Q01DX001 (ip), vehicle: Klucel (hydroxypropylcellulose) (HPC)
[14] = dose: 400.0 mg/kg/injection, schedule: Q04DX003 (ip), vehicle: saline with Tween-80
[15] = dose: 50.0 mg/kg/injection, schedule: Q01DX001 (ip), vehicle: carboxymethylcellulose (CMC)
[16] = dose: 100.0 mg/kg/injection, schedule: Q01DX001 (ip), vehicle: carboxymethylcellulose (CMC)
[17] = dose: 200.0 mg/kg/injection, schedule: Q01DX001 (ip), vehicle: carboxymethylcellulose (CMC)
[18] = dose: 100.0 mg/kg/injection, schedule: Q01DX001 (ip), vehicle: other
[19] = dose: 200.0 mg/kg/injection, schedule: Q01DX001 (ip), vehicle: other
[20] = dose: 400.0 mg/kg/injection, schedule: Q01DX001 (ip), vehicle: other
[21] = dose: 100.0 mg/kg/injection, schedule: Q04DX002 (ip), vehicle: saline with Tween-80
[22] = dose: 200.0 mg/kg/injection, schedule: Q04DX002 (ip), vehicle: saline with Tween-80
[23] = dose: 400.0 mg/kg/injection, schedule: Q04DX002 (ip), vehicle: saline with Tween-80
[24] = dose: 100.0 mg/kg/injection, schedule: Q04DX003 (ip), vehicle: Klucel (hydroxypropylcellulose) (HPC)
[25] = dose: 200.0 mg/kg/injection, schedule: Q01DX009 (ip), vehicle: saline
[26] = dose: 400.0 mg/kg/injection, schedule: Q01DX009 (ip), vehicle: saline

Measured: T/C

O=C(O)c1scc2c1CCCC2
inactive: [1] 97 % of control | [2] 87 % of control

CC(=O)Oc1c(Br)c(-c2cc([N+](=O)[O-])c(C)c([N+](=O)[O-])c2C)c(OC(C)=O)c(Br)c1-c1cc([N+](=O)[O-])c(C)c([N+](=O)[O-])c1C
inactive: [3] 104 % of control | [4] 91 % of control | [5] 88 % of control

CCOC(=O)C(c1cccc(OC)c1)C1(C(=O)OCC)CC2(CCC1=O)OCCO2 (centres undefined)
inactive: [6] 93 % of control | [7] 95 % of control | [8] 88 % of control

CC1(C)N=C(N)N=C(N)N1c1ccc(CCCCc2ccc(S(=O)(=O)F)cc2)cc1
inactive: [9] 113 % of control | [10] 106 % of control

COC(=N\S(=O)(=O)c1ccccc1)/C(=N\S(=O)(=O)c1ccccc1)OC
inactive: [11] 100 % of control | [12] 104 % of control | [13] 102 % of control

COc1ccc(C(=O)CC(c2ccccc2)N2CCCCC2)cc1OC (centres undefined)
inactive: [1] 100 % of control | [2] 108 % of control | [14] 105 % of control

OCC1CC2CC(O)C1C2 (centres undefined)
inactive: dose: 75.0 mg/kg/injection, schedule: Q01DX001 (ip), vehicle: saline 100 % of control and 110 % of control | dose: 150.0 mg/kg/injection, schedule: Q01DX001 (ip), vehicle: saline 108 % of control

COc1c2c(c3c(c1OC)c(=O)c1ccccc1n3C)OCO2
inactive: [15] 96 % of control | [16] 93 % of control | [17] 107 % of control | dose: 300.0 mg/kg/injection, schedule: Q01DX001 (ip), vehicle: carboxymethylcellulose (CMC) 102 % of control

CC(=O)Oc1ccc2c(=O)c(-c3ccccc3)c(C)oc2c1
inactive: [18] 108 % of control | [1] 100 % of control | [19] 111 % of control | [2] 108 % of control | [20] 94 % of control | [14] 105 % of control

CCCCOC(=O)c1ccc(O)c(OC)c1
inactive: dose: 100.0 mg/kg/injection, schedule: Q01DX001 (ip), vehicle: saline 100 % of control | dose: 200.0 mg/kg/injection, schedule: Q01DX001 (ip), vehicle: saline 105 % of control | dose: 400.0 mg/kg/injection, schedule: Q01DX001 (ip), vehicle: saline 102 % of control

CC(C)(C)[Si](C)(C)OC1CCP(C)(=S)CC1 (centres undefined)
inactive: [21] 98 % of control | [22] 91 % of control | [23] 95 % of control

Cc1ccc(S(=O)(=O)N(c2cc(C)ccc2C)c2ccccc2[N+](=O)[O-])cc1
inactive: [15] 98 % of control | [16] 91 % of control | [17] 96 % of control | dose: 400.0 mg/kg/injection, schedule: Q01DX001 (ip), vehicle: carboxymethylcellulose (CMC) 98 % of control

CCOC(=O)c1[nH]c(C)c(CC(C(=O)OCC)C(=O)OCC)c1C
inactive: dose: 25.0 mg/kg/injection, schedule: Q04DX003 (ip), vehicle: Klucel (hydroxypropylcellulose) (HPC) 97 % of control | dose: 50.0 mg/kg/injection, schedule: Q04DX003 (ip), vehicle: Klucel (hydroxypropylcellulose) (HPC) 93 % of control | [11] 101 % of control | [24] 95 % of control | [12] 95 % of control | [13] 98 % of control

Oc1ccccc1C=NCCN=Cc1ccccc1O.[Zn+2]
inactive: [18] 103 % of control | [19] 114 % of control | [20] 100 % of control

NC(=S)/C(N)=N/Nc1ccc(Cl)cc1
inactive: dose: 12.5 mg/kg/injection, schedule: Q01DX009 (ip), vehicle: saline with Tween-80 92 % of control | dose: 12.5 mg/kg/injection, schedule: Q01DX009 (ip), vehicle: saline 108 % of control | dose: 25.0 mg/kg/injection, schedule: Q01DX009 (ip), vehicle: saline with Tween-80 92 % of control | dose: 25.0 mg/kg/injection, schedule: Q01DX009 (ip), vehicle: saline 120 % of control | [9] 103 % of control

Cc1ccc(C(=O)C(O)c2ccc(C)cc2)cc1 (centres undefined)
inactive: [6] 98 % of control | [7] 101 % of control | [8] 98 % of control

S=c1[nH]c2cc(Cl)ccc2s1
inactive: dose: 100.0 mg/kg/injection, schedule: Q04DX002 (ip), vehicle: Klucel (hydroxypropylcellulose) (HPC) 93 % of control | dose: 200.0 mg/kg/injection, schedule: Q04DX002 (ip), vehicle: Klucel (hydroxypropylcellulose) (HPC) 96 % of control | dose: 400.0 mg/kg/injection, schedule: Q04DX002 (ip), vehicle: Klucel (hydroxypropylcellulose) (HPC) 86 % of control

Cc1ccc(C)c(NC(=O)Oc2ccc(Cl)cc2C)c1
inactive: dose: 100.0 mg/kg/injection, schedule: Q01DX001 (ip), vehicle: saline with Tween-80 100 % of control and 91 % of control | [3] 86 % of control | [21] 92 % of control | dose: 200.0 mg/kg/injection, schedule: Q01DX001 (ip), vehicle: saline with Tween-80 98 % of control | [4] 100 % of control and 89 % of control | [22] 92 % of control | dose: 400.0 mg/kg/injection, schedule: Q01DX001 (ip), vehicle: saline with Tween-80 94 % of control and 100 % of control | [5] 99 % of control and 100 % of control | [23] 89 % of control

CC1c2c(ccc3c2CCC=C3)CCC1CC1=CCCc2ccc3ccccc3c21 (centres undefined)
inactive: [10] 107 % of control | [24] 103 % of control | [25] 95 % of control | dose: 200.0 mg/kg/injection, schedule: Q04DX003 (ip), vehicle: Klucel (hydroxypropylcellulose) (HPC) 90 % of control | [26] 93 % of control | dose: 400.0 mg/kg/injection, schedule: Q04DX003 (ip), vehicle: Klucel (hydroxypropylcellulose) (HPC) 95 % of control

O=C(O)C(CCO)c1ccccc1 (centres undefined)
inactive: [21] 95 % of control | [22] 100 % of control | [23] 95 % of control

O=C(Nc1ccccc1)c1ccc(C(F)(F)F)cc1O
inactive: [21] 105 % of control | [22] 103 % of control

O=C(Nc1ccc([N+](=O)[O-])cc1Cl)N(CC(O)c1ccccc1)C1CCCCC1 (centres undefined)
inactive: [10] 90 % of control | dose: 100.0 mg/kg/injection, schedule: Q04DX003 (ip), vehicle: saline 108 % of control | [25] 95 % of control | dose: 200.0 mg/kg/injection, schedule: Q04DX003 (ip), vehicle: saline 102 % of control | [26] 96 % of control | dose: 400.0 mg/kg/injection, schedule: Q04DX003 (ip), vehicle: saline 100 % of control

Source: PubChem BioAssay AID248 (DTP/NCI, 2004)
